This is an account of results in US11344601B2, “Tumor microenvironment-related target TAK1 and application thereof in inhibition of tumor” (Shanghai Institutes for Biological Sciences, Chinese …, priority 2017, dated 2022).

In test [1] the test system is prostate-derived stromal cell line PSC27 and epithelial cancer cell line PC3 xenograft tumors. Description: Preclinical chemotherapy trial, subcutaneous PC3/PSC27 tissue-recombinant tumors, terminal tumor volume. Type of test: in vivo, ICR-SCID mice. Here is the method:
All experimental mouse experiments were carried out in strict accordance with the relevant regulations of the Institutional animal care and use committee (IACUC) of the shanghai Institute of Life Sciences of the Chinese Academy of Sciences. ICR-SCID mice at an age of about 6 weeks (about 25 g in body weight) were used in this patent-related animal experiment. Stromal cells PSC27 and epithelial cells were mixed at a ratio of 1:4, with each implant containing 1.25×10^6 cells for tissue recombination. The transplant tumor was implanted into mice subcutaneously, and the animals were euthanized at the end of Week 8 after transplantation. The tumor volume was calculated according to the following formula: V=(π/6)×((l+w)/2)^3 (V, volume; l, length; w, width). Similarly, lung and breast cancer xenograft tumors were formed by tissue recombination with A549 (non-small cell lung cancer cell line) and W138 (lung fibroblast line), MDA-MB-231 (triple negative breast cancer cell line) and HBF1203 (breast fibroblast line), respectively.
(§1) In the preclinical chemotherapy trial, mice subcutaneously transplanted with tumors were fed standard experimental diet. After 2 weeks, the chemotherapeutics mitoxantrone (dose of 0.2 mg/kg) and/or SASP inhibitors (500 μl, dose of 10 mg/kg, RAD001, SB203580 and 5Z-7 were purchased from Tocris; LYTAK, purchased from Lilly Co ((Indianapolis, Ind.), 5 mg/kg) were administrated intraperitoneally. The timepoint was the first day of Week 3, 5, 7, and the whole course of treatment was composed of three cycles of administration, each cycle lasted for 2 weeks. After the course of treatment, mouse […] was collected for tumor measurement and histological analysis. Each mouse received cumulatively 0.6 mg mitoxantrone/kg body weight and 30 mg SASP inhibitor/kg body (15 mg/kg body weight for LYTAK1). Mice xenografted with lung cancer and breast cancer tumor received bleomycin (totally 0.3 mg/kg) and doxorubicin (totally 0.2 mg/kg), respectively. The timepoints and frequency were same as the administration of mitoxantrone. The chemotherapeutic trial was performed until the end of Week 8, and the mice were dissected immediately after death. The transplant tumors were collected and used for analysis in a pathological system.
In order to simulate clinical conditions as much as possible, the present inventor inoculated the subcutaneous site of immunodeficient mice with an admixture of prostate-derived stromal cell line PSC27 and epithelial cancer cell line PC3. The mice subsequently underwent a regimen of 8-week preclinical chemotherapy, which included three single- or double-drug treatments based on a series of pre-experimental data (FIGS. 64 and 65). In the absence of stromal cells, PC3 cells were still able to form tumors under screening pressure caused by chemotherapeutics, though their volumes were smaller than that generated in the case of concurrent inoculation of stromal cells and cancer cells. Such difference also objectively confirmed the tumor-promoting effect of the microenvironment (FIG. 66).

The test system of test [2] is PC3/PSC27 xenograft tumors. In words: Time-extended preclinical treatment, survival of PC3/PSC27 tumor-bearing mice. Type of test: in vivo. On the procedure:
as §1, with “Mice xenografted with lung cancer and breast cancer tumor received bleomycin (totally 0.3 mg/kg) and doxorubicin (totally 0.2 mg/kg), respectively. The timepoints and frequency were same as the administration of mitoxantrone. The chemotherapeutic trial was performed until the end of Week 8, and the mice were dissected immediately after death. The transplant tumors were collected and used for analysis in a pathological system.” left out
Although there was no ectopic metastasis of cancer cells, the current inventor questions whether the microenvironment causes other pathological consequences other than tumor growth and drug resistance. To this end, the present inventor evaluated the survival of multiple groups of animals under a batch of time-extended preclinical treatment conditions to determine the objective results of tumor progression. All animals were monitored for tumor volume and recognized as severe disease when the tumor volume reached a certain upper limit (size 2000 mm^3).

The next test has as its system IL-8. In words: IL-8 protein expression of damaged stromal cells (Western blot, ELISA). The format is cell-based, human. Here is the method: FIG. 15. The stromal cells were collected on Day 7 after bleomycin and/or 5Z-7 treatment. The lysates were analyzed by Western blot for their phosphorylation levels of ATM and TAK1, and activation of TAK1 downstream substrate JN K and p38. IL-8, a chemokine was used as a marker secreted factor of SASP, whose expression level was simultaneously analyzed. FIG. 33. The extracellular fluid released by each group of cells were tested by ELISA to determine the protein expression level of the secreted factor IL-8.

The test system of the next test is p38MAPK, JNK, ATM. Description: Western blot of JNK, p38MAPK and ATM phosphorylation in damaged stromal cells. The format is cell-based, human. To be noted: Day 7 after bleomycin and/or 5Z-7. On the procedure:
The nitrocellulose filter membrane was blocked at room temperature for 1 h in the blocking solution (TBST containing 5% skim milk powder (0.1% Tween-20 in TBS)), incubated overnight at 4° C. in a primary antibody solution, rinsed at TBST room temperature for 3 times, each for 2 min. The corresponding secondary antibody conjugated with HRP prepared with the blocking solution was added, the filter membrane was incubated at room temperature for 0.5 h. The filter membrane was rinsed with PBST at room temperature for 3 times, each for 2 min.
On the technique in general: A western blot detects proteins with antibodies after separation by electrophoresis.

For the molecule `COc1cc(O)c2c(c1)/C=C/C[C@H](O)[C@H](O)C(=O)/C=C\C[C@H](C)OC2=O` [5Z-7, 5z-7-oxozeaenol], the “effect on tumor growth” value in test [1] (TAK1 inhibitor alone) is “does not appear to alter tumor growth trends”. Moreover, in test [1] (inhibitor combined with mitoxantrone (MIT) vs mitoxantrone alone (group 8 vs group 6), end of Week 8), the “further decrease in terminal tumor volume” value is given as 60%. Also, the survival of mice result in test [2] (5Z-7 alone) is on record as “only slightly prolonged”. Also, in test [2] (MIT/5Z-7 combination vs mitoxantrone alone, severe disease at tumor size 2000 mm^3), the “prolongation of disease-free survival” value is given as “about 50%”. Moreover, in the test on IL-8 (ELISA of extracellular fluid, bleomycin plus inhibitor), the “chemokine IL-8 protein levels induced by DNA damage” value is on record as “significantly reduced”. For the same molecule, in the test with IL-8 (Western blot, Day 7 after bleomycin and/or 5Z-7), the “protein expression level of IL-8” value was “significantly downregulated”. In the test with p38MAPK, JNK, ATM, the “phosphorylation of JNK and p38MAPK” value is “decreased significantly”; the “phosphorylation status of ATM stimulated by DNA damage” value is reported as “does not depend on whether TAK1 activity is inhibited”.
